Data on six compounds can be found in patent US20250197425A1, “2,6,9-TRISUBSTITUTED PURINES” (ASTRAZENECA AB, priority 2022, published 2025).

One data set addresses CDK4:CCND1 (Homo sapiens (Human), UniProt P11802). Put plainly: NanoBRET assay in MCF-7 cells, CDK4. The format is cell-based. The settings on record: NanoBRET, transfected MCF-7 cells, 2 hours; n = 1 or average; read-out: CDK4 IC50. The method, boiled down:
(§1)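 Intracellular target engagement was measured by NanoBRET ratio (460 nm/610 nm) in live MCF-7 cells transiently carrying CDK4:CCND1 (Tracer K-7, 100 μM stock) or CDK1:CCNB1 (Tracer K-9, 400 μM stock).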

Another data set has as its target CDK1:CCNB1 (Homo sapiens (Human), UniProt P06493). Put plainly: NanoBRET assay in MCF-7 cells, CDK1. It is filed as cell-based. As to conditions: NanoBRET, transfected MCF-7 cells, 2 hours; n = 1 or average; read-out: CDK1 IC50. The method, boiled down: as §1
In general terms: BRET reads energy transfer from a luciferase to a nearby fluorophore.

For data set [1], the system named is NPM phosphorylation (Thr199, CDK2-cyclin E complex). Put plainly: NPM phosphorylation imaging assay in MCF-7 cells. As to conditions: Homo sapiens, MCF7, 2 hours, 4N DNA cells. The format is cell-based. The method in brief:
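MCF-7 cells were fixed, permeabilised and immunostained, then imaged for phospho-NPM (Thr199), a CDK2-cyclin E site. Analysis was gated on 4N-DNA cells by Hoechst staining. Signals were normalised to controls and fitted for IC50.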

A further data set relates to OVCAR3 cells. Put plainly: Cellular proliferation EdU assay, OVCAR3. As to conditions: Homo sapiens, OVCAR-3, 48 h, EdU assay, two days; read-out: OVCAR3 IC50. It is filed as cell-based, human. The method, boiled down: (§2)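 MCF-7 (800 cells/well) and OVCAR3 (1200 cells/well) in RPMI with 10% FBS exposed to compounds for two days at 37 °C.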
A short description of data set [2]: Aqueous thermodynamic solubility, shake-flask. The format is physicochemical. The settings on record: aqueous phosphate buffer, 25 °C, pH 7.4, aqueous buffer, thermodynamic from solid, phosphate buffer 0.1 M, pH 7.4, 24 hours. The method in brief: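 After 24 h stirring at 25° C. in pH 7.4 phosphate buffer (0.1 M), solid-free supernatant from two centrifugations was quantified by UPLC/MS/MS after dilution in water. Compound was added as dried material after DMSO removal.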

A short description of data set [3]: CLint assessment in human liver microsomes (HLM). The format is in vitro ADME. As to conditions: 1 μM. The method in brief:
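Microsomes preincubated 8 min with NADPH, then compound added and incubated 30 min at 37° C. Remaining compound measured by LC-MS/MS. t1/2 and CLint calculated, with CLint scaled to incubation volume per mg microsomal protein.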

The test system of data set [4] is POLR2A Ser2 phosphorylation (CDK9). Briefly: POLR2A Ser2 phosphorylation imaging assay in MCF-7 cells. The format is cell-based. As to conditions: Homo sapiens, MCF7, 2 h, MCF-7 cells, 2 hours; read-out: POLR2A Ser2 phosphorylation IC50. The method, boiled down: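 MCF-7 cells were fixed, permeabilised and immunostained for POLR2A phospho-Ser2, then imaged by high-content microscopy. Levels were normalised to controls and IC50 values derived.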

A further data set addresses CDK2:CCNE1 (Homo sapiens (Human), UniProt P24941). Briefly: NanoBRET assay in MCF-7 cells, CDK2. It is filed as cell-based. The settings on record: transfected MCF-7 cells, 2 hours, n = 1 or average. The method, boiled down: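 In live MCF-7 cells, compound added followed by NanoBRET TE Tracer K-9 (stock 200 μM) for CDK2, 2 h at 37° C, 5% CO2.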
A further data set has as its system MCF-7 cells. Put plainly: Cellular proliferation EdU assay, MCF-7. It is filed as cell-based. As to conditions: Homo sapiens, MCF7, 48 h, EdU assay, two days; read-out: MCF-7 IC50. The method, boiled down: as §2

SMILES strings stand for the structures. In brackets after ≈: the same amount, converted by molar mass. A value given as a limit tells only on which side of the number the result lay.

Sequence of CDK4:CCND1 (P11802 whole entry): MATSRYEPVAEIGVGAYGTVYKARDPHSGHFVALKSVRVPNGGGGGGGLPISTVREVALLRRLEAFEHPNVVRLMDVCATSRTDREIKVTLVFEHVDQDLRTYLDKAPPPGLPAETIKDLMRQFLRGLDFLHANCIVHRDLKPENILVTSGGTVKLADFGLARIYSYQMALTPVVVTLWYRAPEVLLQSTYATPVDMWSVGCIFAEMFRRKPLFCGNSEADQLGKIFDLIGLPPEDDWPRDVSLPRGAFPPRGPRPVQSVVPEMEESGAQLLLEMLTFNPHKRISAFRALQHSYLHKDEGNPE
Sequence of CDK4:CCND1 (P24385 whole entry partner): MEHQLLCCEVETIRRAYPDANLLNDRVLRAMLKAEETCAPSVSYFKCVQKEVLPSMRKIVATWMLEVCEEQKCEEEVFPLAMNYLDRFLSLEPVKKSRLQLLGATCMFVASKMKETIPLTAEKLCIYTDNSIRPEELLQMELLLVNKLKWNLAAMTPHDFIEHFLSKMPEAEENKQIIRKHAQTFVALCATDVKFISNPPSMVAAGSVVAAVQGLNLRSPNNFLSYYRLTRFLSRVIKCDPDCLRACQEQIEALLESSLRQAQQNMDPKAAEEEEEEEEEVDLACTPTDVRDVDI
Sequence of CDK1:CCNB1 (P06493 whole entry): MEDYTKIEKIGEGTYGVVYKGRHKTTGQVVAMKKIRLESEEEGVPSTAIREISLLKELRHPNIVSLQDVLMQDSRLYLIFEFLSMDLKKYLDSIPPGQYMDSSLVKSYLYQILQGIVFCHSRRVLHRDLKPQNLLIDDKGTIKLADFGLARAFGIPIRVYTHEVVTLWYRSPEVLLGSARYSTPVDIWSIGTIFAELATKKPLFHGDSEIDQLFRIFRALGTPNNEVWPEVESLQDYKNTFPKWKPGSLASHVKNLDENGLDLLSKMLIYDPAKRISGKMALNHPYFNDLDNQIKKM
Sequence of CDK1:CCNB1 (P14635 whole entry partner): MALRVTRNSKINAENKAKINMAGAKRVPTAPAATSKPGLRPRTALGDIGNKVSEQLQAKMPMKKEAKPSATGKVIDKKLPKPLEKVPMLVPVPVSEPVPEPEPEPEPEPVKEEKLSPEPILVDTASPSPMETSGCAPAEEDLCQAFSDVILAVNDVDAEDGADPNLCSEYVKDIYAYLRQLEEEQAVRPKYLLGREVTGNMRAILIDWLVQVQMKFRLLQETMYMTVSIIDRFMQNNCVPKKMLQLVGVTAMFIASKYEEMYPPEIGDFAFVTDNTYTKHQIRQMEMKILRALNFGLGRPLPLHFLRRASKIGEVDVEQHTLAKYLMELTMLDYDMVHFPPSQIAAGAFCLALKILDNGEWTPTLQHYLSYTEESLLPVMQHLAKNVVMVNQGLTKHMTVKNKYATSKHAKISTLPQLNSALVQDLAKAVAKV

For `CC(C)n1cnc2c(N[C@H]3CCN(S(C)(=O)=O)C3)nc(N[C@@H](CO)C3CC3)nc21` [Example 30, (R)-2-cyclopropyl-2-((9-isopropyl-6-(((S)-1-(methylsulfonyl)-pyrrolidin-3-yl)amino)-9H-purin-2-yl)amino)ethanol], the concentration for half-maximal inhibition (IC50) at CDK4:CCND1 was 5700 nM; on CDK1:CCNB1, 746 nM; in [1], 198 nM; in the data set with OVCAR3 cells, 191 nM; in [4], above 30000 nM; at CDK2:CCNE1 it was 19 nM. In addition, the half-inhibitory concentration (IC50) in the data set with MCF-7 cells is 785 nM. Further, the solubility at 24 h in data set [2] came to 276 µM (≈ 117 µg/mL). In addition, the “HLM CLint” value in [3] is 191 µL/min/mg.
Consider `CC[C@H](Nc1nc(N[C@H]2CCN(S(=O)(=O)c3cnn(C)c3)C2)c2ncn(C(C)C)c2n1)[C@@H](C)O` [Example 31, (2R,3S)-3-((9-isopropyl-6-(((S)-1-((1-methyl-1H-pyrazol-4-yl)sulfonyl)pyrrolidin-3-yl)amino)-9H-purin-2-yl)amino)pentan-2-ol], for which the IC50 on CDK4:CCND1 was above 29700 nM; on CDK1:CCNB1, 6290 nM; in [1], 1050 nM; in the data set with OVCAR3 cells, 964 nM; in data set [4], above 30000 nM; at CDK2:CCNE1 it was 39 nM. The concentration for half-maximal inhibition (IC50) in the data set with MCF-7 cells came to 3160 nM. The solubility at 24 h in [2] is above 1000 µM. The “HLM CLint” value in data set [3] was determined as 154 µL/min/mg.
As to `CC[C@H](Nc1nc(N[C@H]2CCN(S(=O)(=O)c3cn(C)cn3)C2)c2ncn(C(C)C)c2n1)[C@@H](C)O` [Example 32, (2R,3S)-3-((9-isopropyl-6-(((S)-1-((1-methyl-1H-imidazol-4-yl)sulfonyl)pyrrolidin-3-yl)amino)-9H-purin-2-yl)amino)pentan-2-ol], the IC50 is 28000 nM on CDK4:CCND1; 2210 nM on CDK1:CCNB1; 607 nM in [1]; 688 nM in the data set with OVCAR3 cells; above 30000 nM in [4]; 82 nM at CDK2:CCNE1. Also, the IC50 in the data set with MCF-7 cells was 3010 nM. Also, the solubility at 24 h in [2] is above 1000 µM. Further, the “HLM CLint” value in data set [3] amounted to 73 µL/min/mg.
On to `CC(C)[C@H](CO)Nc1nc(N[C@H]2C[C@@H](C)N(S(C)(=O)=O)C2)c2ncn(C(C)C)c2n1` [Example 34, (R)-2-((9-isopropyl-6-(((3S,5R)-5-methyl-1-(methylsulfonyl)-pyrrolidin-3-yl)amino)-9H-purin-2-yl)amino)-3-methylbutan-1-ol], for which the IC50 on CDK4:CCND1 was 11800 nM; on CDK1:CCNB1, 844 nM; in [1], 381 nM; in the data set on OVCAR3 cells it was 487 nM; in [4], above 30000 nM; on CDK2:CCNE1, 12 nM. The IC50 with MCF-7 cells was determined as 1150 nM. This compound also came in with a solubility at 24 h in data set [2] of 59.9 µM (≈ 26.3 µg/mL). Besides, in [3], the “HLM CLint” value was above 300 µL/min/mg.
For the compound `CC(C)[C@H](CO)Nc1nc(N[C@H]2C[C@H](C)N(S(C)(=O)=O)C2)c2ncn(C(C)C)c2n1` [Example 35, (R)-2-((9-isopropyl-6-(((3S,5S)-5-methyl-1-(methylsulfonyl)-pyrrolidin-3-yl)amino)-9H-purin-2-yl)amino)-3-methylbutan-1-ol], the IC50 was 11200 nM at CDK4:CCND1; 6080 nM at CDK1:CCNB1; 1220 nM in [1]; 1620 nM with OVCAR3 cells; above 30000 nM in [4]; 52 nM at CDK2:CCNE1. Besides, in the data set with MCF-7 cells, the IC50 came to 3330 nM. Moreover, the solubility at 24 h in [2] turned out to be 26.4 µM (≈ 11.6 µg/mL). In data set [3], the “HLM CLint” value was above 300 µL/min/mg.
Turning to `CC(C)[C@H](CO)Nc1nc(N[C@@H]2CN(S(C)(=O)=O)C[C@H]2C)c2ncn(C(C)C)c2n1` [Example 36, (R)-2-((9-isopropyl-6-(((3S,4R)-4-methyl-1-(methylsulfonyl)-pyrrolidin-3-yl)amino)-9H-purin-2-yl)amino)-3-methylbutan-1-ol], the IC50 on CDK4:CCND1 was above 29700 nM; at CDK1:CCNB1, 2020 nM; in data set [1], 1230 nM; with OVCAR3 cells, 1250 nM; in data set [4] it was above 30000 nM; at CDK2:CCNE1, 50 nM. Further, the IC50 in the data set on MCF-7 cells was 3010 nM. In data set [2], this compound came in with a solubility at 24 h of 11.1 µM (≈ 4.88 µg/mL). The “HLM CLint” value in [3] was above 300 µL/min/mg.

The term IC50 denotes the concentration that gives 50% inhibition. As a reminder, the solubility is the concentration that dissolves in the medium under given conditions.
